The test system of data set [1] is ERK 1/2 kinases. The conditions noted are these: ATDC5 cells, mouse chondrogenic cell line; cited from earlier work.
Data set [2] deals with human osteoblast cells (ATCC number CRL-11372). Description: Cell Titer 96 Aqueous One Solution (MTS) cell proliferation assay of human osteoblasts. The data set is classed as cell-based. The conditions noted are these: for enhancement of human osteoblast proliferation compared with controls: absorbance at 490 nm at day 7. As for the experimental part:
A cell line (ATCC number CRL-11372) of human osteoblast cells was purchased from the American Type Culture […] (ATCC, Manassas, Va.). Propagation of the human osteoblast cells was in a 1:1 mixture of Ham's F12 Medium and Dulbecco's Modified Eagles Medium (DMEM) with 2.5 mM L-glutamine without phenol red. Base medium was supplemented with 0.3 mg/mL of Geneticin (G418) antibiotic and 10% fetal bovine serum (Harris S A, et al. 1995 Developmental and characterization of a conditionally immortalized human fetal osteoblastic cell line. J Bone Miner Res 10:178-186). Cells were incubated at a temperature of 34° C. in 5% CO2 at which they have rapid cell division, doubling every 36 hours (Harris S A, et al. 1995 Developmental and characterization of a conditionally immortalized human fetal osteoblastic cell line. J Bone Miner Res 10:178-186). […] Cells were dispensed into new flasks with subculturing every 6-8 days. The medium was changed every 3 days.
After the osteoblast cells were subcultured for 24 h, ˜5000 cells in 200 μL of the above media were then seeded (day 1) into 96-well plates (Nuclon, Roskilde, Denmark). After overnight incubation at 34° C. in 5% CO2, the media was removed (day 2), and 50 μL of fresh media was added to control wells, blank wells (with no cells inside), and 50 μL of media with 10 picomolar (pM), 100 pM, 1 nanomolar (nM), or 10 nM of CNP or vessel dilator. At day 5, in these experiments, 50 μL of fresh media was added to the controls, blank wells, and 50 μL of media with 1 nM, 10 nM, 10 pM, and 100 pM of the respective natriuretic hormones for a total volume of 100 μL of media in each well. At day 7, 20 μL of Cell Titer 96® Aqueous One Solution (Promega Corporation, Madison, Wis.) was added to each well containing 1004 of medium and allowed to incubate for 4 h in 5% CO2 atmosphere before recording absorbance at 490 nm with a 96-well plate reader (Cory A H, et al. 1991 Use of aqueous soluble tetrazolium/formazan assay for growth assays in culture. Cancer Commun 3:207-212). There were 15 observations of vessel dilator at each concentration and 16 observations of CNP at each concentration. The peptide hormones used in this investigation were from Phoenix Pharmaceuticals, Inc., Burlingame, Calif.
Cell proliferation of human osteoblasts was examined with the Cell Titer 96 Aqueous One Solution cell proliferation assay (Promega Corp.). This colorimetric method determines the viable cells' proliferation by recording the absorption at 490 nm with a 96-well plate reader (Cory A H, et al. 1991 Use of aqueous soluble tetrazolium/formazan assay for growth assays in culture. Cancer Commun 3:207-212) after incubating the respective cells at 37° C. for 4 h in a 5% CO2 atmosphere.
Approximately 5000 human osteoblast cells were in each well. The proliferation assay detects the number of viable cells in proliferation using a tetrazolium compound (3-[4,5-dimethylthiazol-2-yl]-5-[3-carboxymethoxyphenyl]-2-[4-sulfophenyl]-2H-tetrazolium, inner salt; MTS) and an electron coupling reagent [phenazine ethosulfate (PES)]. PES has enhanced chemical stability, which allows it to be combined with MTS to form a stable solution (Cory A H, et al. 1991 Use of aqueous soluble tetrazolium/formazan assay for growth assays in culture. Cancer Commun 3:207-212). The MTS tetrazolium compound (Owen's reagent) is bioreduced by living cells into a colored formazan product that is measurable at […] in a spectrophotometer, thereby eliminating any nonviable (i.e. dead) cells that would not be proliferating (Cory A H, et al. 1991 Use of aqueous soluble tetrazolium/formazan assay for growth assays in culture. Cancer Commun 3:207-212). This method measure only viable cells' proliferation as dead cells are unable to reduce the MTS tetrazolium compound to a colored formazan product.
All data are expressed as mean±SEM. Statistical significance was determined by the Mann-Whitney test (also called Wilcoxon rank-sum test) for different sample sizes. […]

In data set [3] the test system is cyclic GMP (cGMP) in chondrocytes. Particulars: CNP versus ANP; cited from earlier work.
For data set [4] the following is noted: in vivo; cited from earlier work.
A short description of data set [5]: circulatory half-life of natriuretic peptides. It counts as in vivo, human. The conditions noted are these: vessel dilator versus CNP. As for the experimental part: (§1) CNP and ANP are ring-structured natriuretic peptides with very short half-lives of <3 min in the circulation (Kalra P R, et al. 2001 The role of C-natriuretic peptide in cardiovascular medicine. Eur Heart J 22:997-1007, Teixeira C C, et al. 2008 Nitric oxide, C-type natriuretic peptide and cGMP as regulators of endochondral ossification. Dev Biol 319:171-178; Nakao K, et al. 1986 The pharmacokinetics of α-human natriuretic polypeptide in healthy subjects. Eur J Clin Pharmacol 31:101-103; Yandle T G, et al. 1986 Metabolic clearance rate and plasma half life of alpha-human atrial natriuretic peptide in man. Life Sci 38:1827-1833). Their biologic effects last for <30 min. […] J Pharmacol Exp Ther 282:603-608) and its biologic effects last >6 h (Vesely D L, et al. 1994 Three peptides from the atrial natriuretic factor prohormone amino terminus lower blood pressure and produce diuresis, natriuresis, and/or kaliuresis in humans. Circulation 90:1129-1140).
(§2) The gene for CNP is expressed in bone (Mericq V, et al. 2000 Regulation of fetal rat bone growth by C-type natriuretic peptide and cGMP. Pediatr Res 47:189-193) to allow it to be an autocrine/paracrine regulator of bone. […] Life Sci 38:1827-1833; Ackerman B H, et al. 1997 Disposition of vessel dilator and long-acting natriuretic peptide in healthy humans after a one-hour infusion. […]

The conditions of data set [6]: in vivo; cited from earlier work. This is another data set of the same source.
For the next data set, the system named is MEK 1/2 kinases. Particulars: proliferating prostate cancer cells; cited from earlier work.
Data set [7] can be described thus: duration of biologic effects of natriuretic peptides. It counts as in vivo, human. The conditions noted are these: versus CNP. As for the experimental part:
as §1, §2

For data set [8], the system named is ERK 1/2 kinases. Particulars: cited from earlier work.

Values joined by “and” are separate entries in the source; they are usually repeats but may differ in a detail not shown here. Equal entries are not always repeated. Positions of bridges follow the written chain, without caps; N, C: chain ends. No end group written: not given here.

With `Nc1nc2c(nc(Br)n2[C@@H]2O[C@@H]3COP(=O)(O)O[C@H]3[C@H]2O)c(=O)[nH]1` [8-bromo cGMP], the “effect on mitogen- (fibroblast growth factor) stimulated ERK 1/2 kinases' phosphorylation” value with ERK 1/2 kinases [1] is reported as “inhibit”.
Consider “CNP: 22 amino acid peptide having a 17-amino acid ring, generated from the natriuretic peptide precursor C gene (GLSKGCFGLKLDRIGSMSGLGC; disulfide 6-22 (inferred); UniProt P23582 105-126, looked up) [reference compound]”, for which the “enhancement of human osteoblast proliferation compared with controls” value in [2] (10 pM peptide) is listed as “no significant enhancement”; in [2] (10 nM peptide), 27%. In [3], the “stimulation of cGMP in chondrocytes relative to ANP” value was 10 fold. Also, the “effect on mitogen- (fibroblast growth factor) stimulated ERK 1/2 kinases' phosphorylation” value with ERK 1/2 kinases [1] is reported as “inhibit”.
For “BNP: natriuretic peptide named with CNP and ANP, biologic effects less than 30 minutes [reference compound]”, the “duration of biologic effects” value in data set [4] is recorded as “less than 30 min”.
As to “Vessel dilator: linear natriuretic peptide synthesized by the ANP gene; cardiac hormone, molecular weight 3878.31 (EVVPPQVLSEPNEEAGAALSPLPEVPPWTGEVSPAQR; Vessel dilator; UniProt P01160 56-92, looked up)”, the “enhancement of human osteoblast proliferation compared with controls” value is given as 8% in [2] (10 pM peptide), 7% in [2] (100 pM peptide), 6% in data set [2] (1 nM peptide) and 8% in data set [2] (10 nM peptide). In data set [2] (compared with CNP), the “stimulates osteoblasts at lower concentrations than CNP” value was found to be 1000. The “circulating half-life longer than CNP” value in data set [5] was found to be 36 fold. The circulatory half-life in data set [6] was 1.78 h. Further, the “duration of biologic effect” value in data set [6] is > 6 h. Also, the “inhibition of activation, i.e. phosphorylation, of MEK 1/2 kinases” value in the data set with MEK 1/2 kinases is given as 98%. In data set [7], the “biologic effects longer than CNP, ANP or BNP” value is 12 times and > 12 times. In data set [4], the “duration of biologic effects” value is > 6 h. Besides, in the data set on ERK 1/2 kinases [8] (EGF stimulation), the “effect on mitogen (epidermal growth factor, EGF) stimulation of ERK 1/2 kinases” value is on record as “completely blocks”. In addition, in the data set with ERK 1/2 kinases [8] (proliferating cells, basal activity), the “inhibition of the phosphorylation of basal activity of ERK 1/2 kinases” value is given as 96%.
